From patent EP0354818A2, “Pharmaceutical compositions containing polyaromatic compounds as active ingredient and their use” (HADASSAH MEDICAL ORGANIZATION, priority 1988, dated 1990)
Values belong to the compound of their own block, whether it stands above or below them.

Legend:
[1] = target: T1, ESb mouse lymphoma heparanase (Mus musculus, UniProt Q6YGZ1); assay: Inhibition of heparanase degradation of 35S labelled ECM; type: biochemical; details: compound 10 µgr/ml, 24 hrs incubation; for Total low-mol-wt. HS fragments released by heparanase (cpm): control 17,756 cpm
T1 construct: endogenous in cells; host or cells: ESb mouse lymphoma cells
T1 sequence (Q6YGZ1 150-535 limits assumed): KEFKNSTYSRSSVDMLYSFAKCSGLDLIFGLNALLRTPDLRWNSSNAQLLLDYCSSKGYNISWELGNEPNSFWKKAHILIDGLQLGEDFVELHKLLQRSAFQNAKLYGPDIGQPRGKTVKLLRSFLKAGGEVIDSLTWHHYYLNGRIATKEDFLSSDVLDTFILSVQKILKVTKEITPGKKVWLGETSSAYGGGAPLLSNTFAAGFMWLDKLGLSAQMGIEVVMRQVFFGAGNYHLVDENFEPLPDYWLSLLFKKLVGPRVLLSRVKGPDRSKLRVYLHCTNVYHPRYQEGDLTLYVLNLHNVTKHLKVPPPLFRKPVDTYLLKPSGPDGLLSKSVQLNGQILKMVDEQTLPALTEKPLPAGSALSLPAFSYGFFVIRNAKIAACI
T1 sequence (Q6YGZ1 28-101 limits assumed): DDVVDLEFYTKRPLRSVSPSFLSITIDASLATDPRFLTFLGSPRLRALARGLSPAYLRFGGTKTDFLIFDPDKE
Procedure: The ability of several of the above mentioned compounds to inhibit lymphoma-cell derived heparanase was tested in the assay system described by Vlodavsky et. al. (Cancer Research. 43: 2704-2711 (1983). ³⁵S labelled ECM was incubated for 24 hrs with ESb mouse lymphoma heparanase in the presence of 10 ugr ml of the indicated compounds. Degradation of the sulfated glycosaminoglycan was followed by gel filtration of the supernatants. Heparanase activity is expressed as the total amount of labelled low-molecular-weight fragments released from the ECM substrate. The results are summarized in Table III.

lipoprotein lipase (LPL) = target: T2, lipoprotein lipase (LPL) (Rattus norvegicus, UniProt Q06000); assay: LPL activity in cultured heart cells and medium; type: cell-based; details: 24 hrs incubation of heart cells; for LPL activity: total: cells plus medium; for % increase in the total: versus 0 M
T2 construct: endogenous in cells; host or cells: F1 heart cell cultures from newborn rat hearts (mainly non-beating mesenchymal cells)
T2 sequence (Q06000 28-474): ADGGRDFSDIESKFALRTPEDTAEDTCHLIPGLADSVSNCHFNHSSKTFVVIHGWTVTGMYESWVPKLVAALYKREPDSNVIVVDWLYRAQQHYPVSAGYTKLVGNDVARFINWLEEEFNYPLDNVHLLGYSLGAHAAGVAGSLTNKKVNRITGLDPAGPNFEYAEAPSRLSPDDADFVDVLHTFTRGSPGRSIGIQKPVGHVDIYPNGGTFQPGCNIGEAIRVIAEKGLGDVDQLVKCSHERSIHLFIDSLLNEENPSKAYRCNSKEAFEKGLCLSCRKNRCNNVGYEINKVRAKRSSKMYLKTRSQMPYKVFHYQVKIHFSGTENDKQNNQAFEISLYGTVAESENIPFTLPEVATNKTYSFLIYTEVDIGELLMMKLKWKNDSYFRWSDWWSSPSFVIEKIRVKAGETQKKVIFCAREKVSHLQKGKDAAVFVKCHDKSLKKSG
Procedure: F₁ heart cell cultures were prepared from newborn rat hearts as previously described (Chajek, T. et al, Biochem. Biophys. Acta 528, 456-474(1978)). They consisted mainly of non-beating mesenchymal cells and were used 8-12 days after their isolation.
The enzyme activity was determined on aliquots of medium and of homogenates of cells which had been released from the petri dish with a rubber policeman in 1 ml of 0.025 M NH₃/NH₄C1 buffer (pH 8.1) containing 1 unit/ml of heparin. The assay system consisted of 0.1 ml of medium or 0.1 ml of cell homogenate ([…]) and 0.1 ml of substrate containing labeled triolein, prepared according to the method of Nilsson-Ehle and Schotz, (J. Lipid Res. 17, 536-541 (1976)). Incubations were carried out at 37°C for 45 min. The reaction was stopped by the addition of methanol/chloroform/heptane (1,4:1.25:1, v/v) and the extraction of fatty acids was performed according to the method of Belfrage and Vaughan (J. Lipid Res. 10, 341-344 (1969), as modified by Nilsson-Ehle and Schotz. Enzyme activity was calculated according to the formula of Nilsson-Ehle and Schotz.

LPL = target: T3, LPL (Rattus norvegicus, UniProt Q06000); assay: Plasma levels of LPL after oral administration to rats; type: in vivo; details: 1ml of 10%-20% solution
T3 construct: from tissue; host or cells: rat plasma (in vivo, after oral aluminon)
T3 sequence (Q06000 28-474): T2 sequence (Q06000 28-474)
Text: Moreover, since aluminon can be absorbed through the gastrointestinal tract, it can be used as an orally administrable anticoagulant (as opposed to heparin which has to be given by injection).

fresh human blood = assay: Anticoagulant effect: partial thromboplastin time (PTT) in blood samples; details: citrated human blood, after addition of Ca++, control 30.5
Procedure: 0.25 ml of the indicated concentration of the drug (x10, diluted in saline) were added to 2.25 ml of fresh human blood, collected in the presence of citrate. PTT was measured following the addition of Ca⁺⁺.

Total low-mol-wt. HS fragments released by heparanase (cpm) [1]: 6,986 cpm | LPL activity: total (lipoprotein lipase (LPL); Evan's Blue 10⁻³ M): 7749 m mole FFA/h/dish | % increase in the total (lipoprotein lipase (LPL); Evan's Blue 10⁻³ M): +139.4% | LPL activity: total (lipoprotein lipase (LPL); Evan's Blue 10⁻⁴ M): 5230 m mole FFA/h/dish | % increase in the total (lipoprotein lipase (LPL); Evan's Blue 10⁻⁴ M): +61.6% | LPL activity: total (lipoprotein lipase (LPL); Evan's Blue 10⁻⁵ M): 4288 m mole FFA/h/dish | % increase in the total (lipoprotein lipase (LPL); Evan's Blue 10⁻⁵ M): +32.5%
Structure (SMILES): Cc1cc(-c2ccc(/N=N/c3ccc4c(S(=O)(=O)O)cc(S(=O)(=O)O)c(N)c4c3O)c(C)c2)ccc1/N=N/c1ccc2c(S(=O)(=O)O)cc(S(=O)(=O)O)c(N)c2c1O [Evan's Blue]

Structure (SMILES): O=C(O)C1=CC(=C(c2ccc(O)c(C(=O)O)c2)c2ccc(O)c(C(=O)O)c2)C=CC1=O [Aluminon]
Total low-mol-wt. HS fragments released by heparanase (cpm) [1]: 3,822 cpm | plasma levels of LPL (LPL): elevated by about an order of magnitude | PTT (fresh human blood; Aluminon final conc. 0.01 mg/ml): 30.5 s | PTT (fresh human blood; Aluminon final conc. 0.1 mg/ml): 190 s | PTT (fresh human blood; Aluminon final conc. 1 mg/ml): >300 s

Structure (SMILES): O=S(=O)(O)c1ccc(N=C2C=CC(=C(c3ccc(Nc4ccc(S(=O)(=O)O)cc4)cc3)c3ccc(Nc4ccc(S(=O)(=O)O)cc4)cc3)C=C2)cc1 [Methyl Blue]
% Inhibition [1]: 23% | Total low-mol-wt. HS fragments released by heparanase (cpm) [1]: 13,676 cpm

% Inhibition [1]: 32%
Structure (SMILES): CCN(Cc1cccc(S(=O)(=O)O)c1)c1ccc(C(=C2C=CC(=[N+](CC)Cc3cccc(S(=O)(=O)O)c3)C=C2)c2ccc(O)cc2S(=O)(=O)[O-])cc1 [Fast Green]
